Source: patent US9102628B2, “Derivatives of pyrazole 3,5-carboxylates, their preparation and their application in therapeutics” (SANOFI, priority 2007, dated 2015)

Molecular target: T1, human recombinant soluble enzyme BACE1 (Homo sapiens, UniProt P56817)
T1 construct: purchased R&D Systems 931-AS
Assay: Test 1: Inhibition of soluble BACE1 (synthetic substrate S-10-R, HPLC/UV detection of cleavage product)
Type: biochemical
Details: BACE1 20 nM, substrate S-10-R 350 μM, 1 hour at 37° C., sodium acetate/acetic acid buffer pH 4.5, 10% DMSO
Excerpt: Test 1: Inhibition of Soluble BACE1
This test uses soluble BACE1 and a synthetic substrate of BACE1.
The human recombinant soluble enzyme BACE1 is available from R&D Systems (reference 931-AS).
The synthetic peptide, made up of the amino acid sequence Ser-Glu-Val-Asn-Leu-Asp-Ala-Glu-Phe-Arg (S-10-R, available from NeoMPS, reference SP000122), is used as synthetic substrate of BACE1.
This synthetic substrate incorporates the cleavage site of BACE1 and fluorescent or chromogenic groups, so that the cleavage products can then be detected, either with UV after separation by HPLC, or by measurement of fluorescence or of optical density. In the present case, the cleavage product Asp-Ala-Glu-Phe-Arg, released during hydrolysis of S-10-R by BACE1, is quantified by UV detection [195 nm] after separation by HPLC with a gradient of acetonitrile from 2% to 100% [HP1100, Agilent; Column Atlantis dC18 (5 mm×2.1 mm; 3 μm)]. […]
The percentage inhibition of the activity of BACE1 by the compounds of the invention is determined as a function of the amount of cleavage product detected by HPLC: the smaller the amount of cleavage product detected, the greater the inhibitory activity of the compounds.
The values of IC50 are then calculated from the percentage inhibition previously determined, in relation to the concentration of the test compounds.

T1 sequence (P56817 46-457 limits assumed): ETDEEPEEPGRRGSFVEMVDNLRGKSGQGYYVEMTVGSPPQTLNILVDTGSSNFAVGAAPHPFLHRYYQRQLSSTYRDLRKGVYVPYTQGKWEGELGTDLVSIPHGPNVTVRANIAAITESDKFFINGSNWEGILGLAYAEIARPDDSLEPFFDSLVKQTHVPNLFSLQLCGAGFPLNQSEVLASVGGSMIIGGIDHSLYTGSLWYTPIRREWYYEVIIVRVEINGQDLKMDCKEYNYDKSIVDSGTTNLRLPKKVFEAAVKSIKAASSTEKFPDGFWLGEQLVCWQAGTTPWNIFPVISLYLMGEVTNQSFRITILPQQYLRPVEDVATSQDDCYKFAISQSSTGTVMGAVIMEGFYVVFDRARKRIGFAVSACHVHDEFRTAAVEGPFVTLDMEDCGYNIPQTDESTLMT

Row | IC50 [µM] | Compound
1 | 0.073 | CCCC1CCCCN1C(=O)c1cc(C(=O)N[C@@H](Cc2cc(F)cc(F)c2)[C@H](O)CNC2(c3cccc(C(F)(F)F)c3)CC2)nn1CC (stereo partly drawn) [compound 53, N-{(1S,2R)-1-(3,5-difluorobenzyl)-2-hydroxy-3-({1-[3-(trifluoromethyl)phenyl]cyclopropyl}amino)propyl}-1-ethyl-5-[(2-propylpiperidin-1-yl)carbonyl]-1H-pyrazole-3-carboxamide]
2 | 2 | CCN(Cc1ccccc1)NC(=O)c1cc(C(=O)N[C@@H](Cc2ccccc2)[C@H](O)CNCc2cccc(C(F)(F)F)c2)nn1CC [compound 69, 5-[(2-benzyl-2-ethylhydrazino)carbonyl]-N-[(1S,2R)-1-benzyl-2-hydroxy-3-{[3-(trifluoromethyl)benzyl]amino}propyl]-1-ethyl-1H-pyrazole-3-carboxamide]
